Source: the NIST ThermoML archive (doi:10.1021/acs.jced.9b00187)

Tests used:
[1] = xn = mol fraction of the nth substance listed; details: Liquid, Moving piston method
[2] = Liquid; for viscosity: Moving piston method; for vapor or sublimation pressure: Closed cell (Static) method

CCCCCCCCCCCC [dodecane] + O=C=O
[1]
Details	viscosity [mPa·s]
283.7 K, 4630 kPa, x2 = 0.8	0.353
283.97 K, 4610 kPa, x2 = 0.8	0.362
284.33 K, 3710 kPa, x2 = 0.5999	0.578
284.41 K, 2630 kPa, x2 = 0.401	0.96
284.44 K, 2530 kPa, x2 = 0.401	0.972
284.6 K, 1460 kPa, x2 = 0.2009	1.227
305.43 K, 5410 kPa, x2 = 0.5999	0.487
305.44 K, 5360 kPa, x2 = 0.5999	0.498
305.64 K, 1770 kPa, x2 = 0.2009	0.865
305.65 K, 3610 kPa, x2 = 0.401	0.667
305.69 K, 1730 kPa, x2 = 0.2009	0.86
305.82 K, 6880 kPa, x2 = 0.8	0.272
328.83 K, 10780 kPa, x2 = 0.8	0.236
328.86 K, 7350 kPa, x2 = 0.5999	0.373
328.99 K, 4470 kPa, x2 = 0.401	0.493
329.3 K, 2050 kPa, x2 = 0.2009	0.585
350.19 K, 5510 kPa, x2 = 0.401	0.397
350.49 K, 14270 kPa, x2 = 0.8	0.208
350.95 K, 9320 kPa, x2 = 0.5999	0.305
351.33 K, 2490 kPa, x2 = 0.2009	0.437

CCCCCCCCCCCC [dodecane]
[2]
Details	viscosity [mPa·s]
284.6 K, 670 kPa	1.75
284.6 K, 2190 kPa	1.78
284.7 K, 2710 kPa	1.79
284.7 K, 4240 kPa	1.82
294 K, 8310 kPa	1.63
322.3 K, 4240 kPa	0.98
350.5 K, 690 kPa	0.66
350.5 K, 4250 kPa	0.68
350.5 K, 8310 kPa	0.72
353.1 K, 8320 kPa	0.69

O=C=O [carbon dioxide]
[2]
Details	vapor or sublimation pressure [kPa]
282.15 K	4392
287.11 K	4961
291.84 K	5555
296.64 K	6214
301.38 K	6928
